Earlier results as cited in patent publication US20220202680A1, “INCREASING THE STABILITY OF AGENTS FOR TREATING KERATIN MATERIAL” (Henkel AG & Co. KGaA, priority 2019, published 2022).

Details: for solubility in water: 25° C.

Row | Compound | solubility in water | solubility in water (in words) (at 25° C.)
1 | O=S(=O)([O-])c1ccc(N=Nc2c(O)ccc3ccccc23)cc1.[Na+] [Acid Orange 7, sodium salt of 4-[(2-hydroxy-1-naphthyl)azo]benzene sulphonate] | more than 7 g/L | 
2 | Nc1cc(S(=O)(=O)[O-])cc2cc(S(=O)(=O)[O-])c(N=Nc3ccccc3)c(O)c12.[Na+].[Na+] [Acid Red 33, diantrium salt of 5-amino-4-hydroxy-3-(phenylazo)-naphthalene-2,7-disulphonate] | 2500 µg/mL | 
3 | O=C([O-])c1c(Cl)c(Cl)c(Cl)c(Cl)c1-c1c2c(Br)cc(=O)c(Br)c-2oc2c(Br)c(O)cc(Br)c12.O=C([O-])c1c(Cl)c(Cl)c(Cl)c(Cl)c1-c1c2c(Br)cc(=O)c(Br)c-2oc2c(Br)c(O)cc(Br)c12.[Na+].[Na+] [Acid Red 92, disodium salt of 3,4,5,6-tetrachloro-2-(1,4,5,8-tetrabromo-6-hydroxy-3-oxoxanthen-9-yl)benzoic acid] | greater than 10 g/L | 
4 | O=C([O-])C1=NN(c2ccc(S(=O)(=O)[O-])cc2)C(=O)C1N=Nc1ccc(S(=O)(=O)[O-])cc1.[Na+].[Na+].[Na+] (stereo not shown) [Acid Yellow 23, trisodium salt of 4,5-dihydro-5-oxo-1-(4-sulfophenyl)-4-((4-sulfophenyl)azo)-1H-pyrazole-3-carboxylic acid] |  | highly soluble
